According to patent US4680283A, “Analogs of substance P and eledoisin” (Merck & Co., Inc., priority 1986, dated 1987):

Assays:
[1] = target: T1, 125I-BH-eledoisin binding sites in rat brain cortex membranes (Rattus norvegicus, UniProt P16177); assay: eledoisin binding assay (competition for 125I-BH-eledoisin binding sites); conditions: peptides dissolved in DMSO
T1 construct: from tissue; host or cells: rat brain cortex membranes
T1 sequence (P16177 1-452): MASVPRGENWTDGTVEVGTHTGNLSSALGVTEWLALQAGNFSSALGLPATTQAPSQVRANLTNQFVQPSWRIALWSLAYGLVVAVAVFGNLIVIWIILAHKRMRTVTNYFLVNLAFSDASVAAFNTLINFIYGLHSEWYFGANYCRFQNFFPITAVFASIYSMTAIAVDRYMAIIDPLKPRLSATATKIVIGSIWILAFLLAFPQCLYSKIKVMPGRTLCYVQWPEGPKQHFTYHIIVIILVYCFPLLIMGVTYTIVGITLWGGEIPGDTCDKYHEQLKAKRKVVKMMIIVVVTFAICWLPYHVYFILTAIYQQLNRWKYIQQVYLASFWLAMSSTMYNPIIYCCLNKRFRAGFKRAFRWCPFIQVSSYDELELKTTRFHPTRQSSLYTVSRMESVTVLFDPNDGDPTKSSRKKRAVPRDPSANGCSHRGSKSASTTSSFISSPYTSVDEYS
Method: (§1) Representative compounds of this invention were tested in the substance P (SP) and eledoisin binding assays. The peptides were dissolved in DMSO and tested for their abilities to compete for ^125 I-BH-SP and ^125 I-BH-eledoison binding sites in rat brain cortex membranes (Cascieri and Liang, J. Biol. Chem., 258, 5158 (1983); Life Sciences, 35, 179 (1984)).
(§2) The following table summarizes the IC50 data obtained in both assay systems as well as showing the IC50 ratio for each peptide in the SP and eledoisin binding assays.

[2] = target: T2, 125I-BH-SP binding sites in rat brain cortex membranes (Rattus norvegicus, UniProt P14600); assay: substance P (SP) binding assay (competition for 125I-BH-SP binding sites); conditions: peptides dissolved in DMSO
T2 construct: from tissue; host or cells: rat brain cortex membranes
Method: as §1, §2

T2 sequence (P14600 whole entry): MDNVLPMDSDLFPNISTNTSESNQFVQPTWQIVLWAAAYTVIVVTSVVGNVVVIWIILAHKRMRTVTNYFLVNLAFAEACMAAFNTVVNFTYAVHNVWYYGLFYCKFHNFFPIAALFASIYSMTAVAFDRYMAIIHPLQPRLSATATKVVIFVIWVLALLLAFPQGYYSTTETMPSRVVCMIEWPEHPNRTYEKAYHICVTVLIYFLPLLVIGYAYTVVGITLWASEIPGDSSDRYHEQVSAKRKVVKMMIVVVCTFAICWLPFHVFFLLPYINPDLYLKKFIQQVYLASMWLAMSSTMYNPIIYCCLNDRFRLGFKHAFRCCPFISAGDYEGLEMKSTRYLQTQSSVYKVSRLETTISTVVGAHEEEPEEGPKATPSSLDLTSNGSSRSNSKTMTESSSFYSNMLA

| IC50 [1] | IC50 [2] | Structure (SMILES) |
| --- | --- | --- |
| 32 µM | 60 µM | CSCC[C@H](NC(=O)[C@H](CC(C)C)N1CC[C@H](NC(=O)[C@H](Cc2ccccc2)NC(=O)[C@H](Cc2ccccc2)NC(=O)[C@@H]2CCC(=O)N2)C1=O)C(N)=O [L-363,232] |
| 0.014 µM | 13 µM | CSCC[C@H](NC(=O)[C@H](CC(C)C)N1CC[C@@H](NC(=O)[C@H](Cc2ccccc2)NC(=O)[C@H](Cc2ccccc2)NC(=O)[C@@H]2CCC(=O)N2)C1=O)C(N)=O [L-363,851, Pyroglutamyl-phenylalanyl-phenylalanyl-[(R)-3-amino-2-oxo-1-pyrrolidine-(S)-4-methyl-2-pentanoyl]-methionine amide] |
